Experimental data: paper PMC8842277, “Highly Antiproliferative Latonduine and Indolo[2,3-c]quinoline Derivatives: Complex Formation with Copper(II) Markedly Changes the Kinase Inhibitory Profile” (Journal of Medicinal Chemistry, 2022)
Several values for one entry are separate records, joined by “and”; a condition that tells them apart may be missing. Identical values can stand only once. Like-named read-outs stand apart in the source and are kept apart here.

Legend:
[1] = Proton dissociation constants by UV–vis titration; format: physicochemical; settings: 30–70% (w/w) DMSO–water; for pKa: DMSO:water 30:70 (w/w) solvent mixture
Description: The protonation processes of HL^1nm and its morpholine counterpart HL^1 (Chart 3) and the solution stability of their copper(II) complexes (1nm and 1) were characterized by UV–vis spectrophotometry. […] Based on the characteristic changes in the UV–vis spectra for HL^1nm in the pH range 2–6 (Figure 3a), two relatively well-separated proton dissociation processes were observed and their pKa values were determined (Table 1).
(§1) An Agilent Carry 8454 diode array spectrophotometer was used to record the UV–visible (UV–vis) spectra in the interval 200–800 nm. The path length was 2 or 0.5 cm. Spectrophotometric titrations were performed on samples containing the proligands HL^1, HL^1nm, or their copper(II) complexes (1 and 1nm; see Chart 2) by a KOH solution in the presence of 0.1 M KCl in a DMSO:water 30:70 (w/w) mixture as a solvent at 25.0 ± 0.1 °C in the pH range from 2 to 11. […] An Orion 710A pH meter equipped with a Metrohm combined electrode (type 6.0234.100) and a Metrohm 665 Dosimat burette were used for the pH measurements and titrations. […] The average water ionization constant (pKw) is 14.52 ± 0.05, which corresponds well to the literature data.[103] Argon was passed over the solutions during the titrations. Proton dissociation constants (pKa) of the ligand, overall stability constants (log β) of the copper(II) complexes, and the individual spectra of the various species present in the solution were calculated by the computer program PSEQUAD.[104] β (MpLqHr) is defined for the general equilibrium pM + qL + rH MpLqHr as β (MpLqHr) = [MpLqHr]/[M]^p[L]^q[H]^r where M denotes the copper(II) ion and L the completely deprotonated ligand. The calculations were always made from the experimental titration data measured in the absence of any precipitate in the solution.

[2] = Overall stability constants of copper(II) complexes by UV–vis titration; format: physicochemical; settings: 30–70% (w/w) DMSO–water, 298 K
Source text: The tridentate coordination via the N,N,N donor set is assumed in [Cu(HL^1nm)]^2+ at such low pH. […] The deprotonation of the non-coordinating hydrazonic nitrogen is likely, and complex [Cu(L^1nm)]^+ is formed. […] However, the absorbance is decreased in the whole wavelength range due to precipitate formation. By the deconvolution of the recorded UV–vis spectra, overall stability constants for the complexes [Cu(HL^1nm)]^2+ and [Cu(L^1nm)]^+ were computed, and log β for [Cu(L^1nm)(OH)] was only estimated (Table 1). In the case of the morpholine hybrid, a somewhat different speciation was obtained as the presence of the pendant morpholine moiety had to be taken into consideration. Log β values for [CuH(HL^1)]^3+, [CuH(L^1)]^2+, and [Cu(L^1)]^+ were computed from the spectrophotometric titration data (Table 1). Since the molar absorbance spectra of [CuH(HL^1)]^3+ and [CuH(L^1)]^2+ complexes resemble those of [Cu(HL^1nm)]^2+ and [Cu(L^1nm)]^+ (Figure 4b), the same coordination modes are likely in these species in couples. […] Increasing the pH (pH > 5), the absorbance is decreased in the whole wavelength range, no isosbestic points are found (indicating the formation of some precipitate), while the λmax is increased. Formation of a mixed hydroxido species [CuH(L^1)(OH)]^+ is also possible. However, the deprotonation of the morpholinium group can take place as well (formation of [Cu(L^1)]^+) in this pH range. As these two processes are overlapping, the two species could not be well distinguished, and the obtained stability constant is quite uncertain.
as §1

[3] = tested on: normal human embryonal lung fibroblast cells (MRC-5); assay: MTT antiproliferative assay; format: cell-based; settings: read-out: IC50 MRC-5 benign, mean
Description: (§2) The in vitro antiproliferative activity of the compounds was tested in doxorubicin-sensitive Colo205 and multidrug-resistant Colo320 human colon adenocarcinoma cell lines as well as in normal human embryonal lung fibroblast cells (MRC-5) by MTT assay.
(§3) Human colonic adenocarcinoma cell lines Colo 205 doxorubicin-sensitive (ATCC-CCL-222) and Colo 320/MDR-LRP multidrug resistant over-expressing ABCB1 (MDR1)-LRP (ATCC-CCL-220.1) were purchased from LGC Promochem, Teddington, UK. The cells were cultured in an RPMI 1640 medium supplemented with 10% heat-inactivated fetal bovine serum, 2 mM L-glutamine, 1 mM Na-pyruvate, and 10 mM HEPES. The semi-adherent human colon cancer cells were detached with Trypsin-Versene (EDTA) solution for 5 min at 37 °C. An MRC-5 human embryonal lung fibroblast cell line (ATCC CCL-171) was purchased from LGC Promochem, Teddington, UK. The cells were cultured in Eagle’s minimal essential medium (EMEM, containing 4.5 g L^–1 glucose) supplemented with a non-essential amino acid mixture, a selection of vitamins, and 10% heat-inactivated fetal bovine serum. The HCT-116 colon carcinoma cells and isogenic p53-knock-out subline were a gift of Prof. Bert Vogelstein from The Johns Hopkins Oncology Center. Cells were cultured in McCoy’s 5A medium supplemented with 10% heat-inactivated fetal bovine serum and 4 mM L-glutamine. All cell lines were incubated at 37 °C, in a 5% CO2, 95% air atmosphere.
(§4) MRC-5 non-cancerous human embryonic lung fibroblast and human colonic adeno-carcinoma cell lines (doxorubicin-sensitive Colo 205 and multidrug resistant Colo 320 colonic adenocarcinoma cells) were used to determine the effect of compounds on cell growth. The effects of increasing concentrations of compounds on cell growth were tested in 96-well flat-bottomed microtiter plates. The compounds were dissolved in DMSO and stock solutions of 10 mM were prepared. These were further diluted in the appropriate cell culture medium by twofold serial dilution starting from 100 or 10 μM for the compounds. The adherent human embryonal lung fibroblast cells were cultured in 96-well flat-bottomed microtiter plates using EMEM supplemented with 10% heat-inactivated fetal bovine serum. The density of the cells was adjusted to 1 × 10^4 cells in 100 μL per well, the cells were seeded for 24 h at 37 °C, 5% CO2, then the medium was removed from the plates containing the cells, and the dilutions of compounds previously made in a separate plate were added to the cells in 200 μL. In the case of the colonic adenocarcinoma cells, the twofold serial dilutions of compounds were prepared in 100 μL of RPMI 1640, horizontally. The semi-adherent colonic adenocarcinoma cells were treated with Trypsin-Versene (EDTA) solution. They were adjusted to a density of 1 × 10^4 cells in 100 μL of RPMI 1640 medium and were added to each well, with the exception of the medium control wells. The final volume of the wells containing compounds and cells was 200 μL. The culture plates were incubated at 37 °C for 72 h; at the end of the incubation period, 20 μL of MTT (thiazolyl blue tetrazolium bromide, Sigma) solution (from a stock solution of 5 mg mL^–1) was added to each well. After incubation at 37 °C for 4 h, 100 μL of sodium dodecyl sulfate (SDS) (Sigma) solution (10% in 0.01 M HCI) was added to each well and the plates were further incubated at 37 °C overnight. Cell growth was determined by measuring the optical density (OD) at 540/630 nm with a Multiscan EX ELISA reader (Thermo Labsystems, Cheshire, WA, USA). […] Curves were fitted by GraphPad Prism software[57] using the sigmoidal dose–response model (comparing variable and fixed slopes). The IC50 values were obtained from at least three independent experiments. Tests in adherent HCT-116 colon carcinoma cells and an isogenic p53-knock-out subline thereof were performed in a similar manner, with 1.5 × 10^3 cells seeded in 100 μL of McCoy’s 5A medium (Sigma-Aldrich) per well. […]

[4] = design: method as in PMID 31125040; settings: cited from earlier work
[5] = Solubility in water/DMSO 99/1; format: physicochemical
Description: To a solution of HL^1 (203 mg, 0.45 mmol) in isopropanol (10 mL) a solution of CuCl2·2H2O (77 mg, 0.45 mmol) in methanol (500 μL) was added. The mixture was heated at reflux for 1 h, cooled to room temperature, and allowed to stand at 4 °C overnight. The product was filtered off, washed with isopropanol (3 mL), and dried in vacuo overnight to give a red-brown powder. Yield: 245 mg. Solubility in water/DMSO 99/1: ≥11 mg mL^–1.

[6] = tested on: doxorubicin-sensitive Colo205 human colon adenocarcinoma cells; assay: MTT antiproliferative assay; format: cell-based; settings: for selectivity factor (SF) Colo205: IC50 MRC-5/IC50 Colo205; for IC50: MTT, 72 h
Description: as §2, §3, §4

[7] = tested on: multidrug-resistant Colo320 human colon adenocarcinoma cells; assay: MTT antiproliferative assay; format: cell-based; settings: for selectivity factor (SF) Colo320: IC50 MRC-5/IC50 Colo320; for IC50: MTT, 72 h
Description: as §2, §3, §4

[8] = Thermodynamic solubility, UV–vis of saturated solutions; settings: water, 298 K
Description: The concentration of the compounds was determined by UV–vis spectrophotometry using stock solutions of the compounds with a known concentration dissolved in pure DMSO and 50% (v/v) DMSO/buffered aqueous solution for the calibration.

[9] = 298 K, I = 0.10 M (KCl), read-out: pKa2

| SMILES | pKa [1, 9] | Solubility in water/DMSO 99/1 [5] [mg mL^–1] | selectivity factor (SF) Colo205 [6] | IC50 [6] [µM] | selectivity factor (SF) Colo320 [7] | IC50 [7] [µM] | IC50 ([3]; 72 h) [µM] | further results |
| --- | --- | --- | --- | --- | --- | --- | --- | --- |
| C(=N\N=C1/NCc2ccccc2-c2c1[nH]c1ccccc21)/c1ccc(CN2CCOCC2)cn1 [HL^1] | 4.53 ± 0.02 |  |  |  |  |  |  | pKa ([1]; 298 K, I = 0.10 M (KCl), read-out: pKa3): 5.65 ± 0.02; log β [CuH(HL^1)]^3+ ([2]; I = 0.10 M (KCl)): 12.38 ± 0.01; log β [CuH(L^1)]^2+ ([2]; I = 0.10 M (KCl)): 8.57 ± 0.01; IC50 ([3]; Homo sapiens, MRC5, 72 h): 3.02 µM |
| C(=N\N=C1/NCc2ccccc2-c2c1[nH]c1ccccc21)/c1ccccn1 [HL^1nm] | 4.75 ± 0.01 |  |  |  |  |  |  | pKa ([1]; 298 K, I = 0.10 M (KCl), read-out: pKa1): 2.32 ± 0.01; log β [Cu(HL^1nm)]^2+ ([2]; I = 0.10 M (KCl)): 8.33 and 8.33 ± 0.01; log β [Cu(L^1nm)]^+ ([2]; I = 0.10 M (KCl)): 4.01 and 4.01 ± 0.01; log β [Cu(L^1nm)(OH)] ([2]; only estimated): –3.1 ± 0.1 |
| CC(=NN=C1NCc2ccccc2-c2c1[nH]c1ccccc21)c1ccccn1 [HL^3nm] |  |  |  |  |  |  |  | log β (copper(II) complexes of HL^3nm) [4]: 6.39; log β [Cu(HL^3nm)]^2+ [4]: 10.96 |
| C(=NNC1=NCc2ccccc2-c2c1[nH]c1ccccc21)c1ccc(CN2CCOCC2)cn1.[Cl][Cu][Cl] [compound 1, CuCl2(HL^1)·H2O] |  | ≥ 11 | 1.33 | 1.43 | 0.83 | 2.29 | 1.9 | pKa [CuH(HL^1)]^3+ ([1]; 298 K, I = 0.10 M (KCl)): 3.81; pKa [CuH(L^1)]^2+ ([1]; overlapping species (footnote a)): 5.71 |
| Brc1ccc2[nH]c3c(c2c1)-c1ccccc1CN=C3NN=Cc1ccc(CN2CCOCC2)cn1.[Cl][Cu][Cl] [compound 2, CuCl2(HL^2)·2H2O] |  | ≥ 14 | 2.01 | 2.74 | 1.73 | 3.19 | 5.52 |  |
| CC(=NNC1=NCc2ccccc2-c2c1[nH]c1ccccc21)c1ccc(CN2CCOCC2)cn1.[Cl][Cu][Cl] [compound 3, CuCl2(HL^3)·0.2C3H7OH·0.3H2O] |  | ≥ 10 | 1.80 | 0.23 | 1.23 | 0.335 | 0.413 | Thermodynamic solubility (S) ([8]; pH 5, 20 mM MES buffer): 63.4 µM; Thermodynamic solubility (S) ([8]; pH 7.4, 20 mM HEPES): 6.0 µM |
